Structures can show the parent of a compound that is named as a salt. Where two headings read alike, the source gives them in different places.
Assays:
physchem = settings: buffer, t1/2 (days) of first step
corn plants = assay type: in vivo
soybeans = assay: Field trial: harvest yield of soybeans; assay type: in vivo; settings: 2 kg (per acre), side dressing, vs plants not exposed
Source text: All essential plant nutrients (N, P, K, and S) were applied in non-limiting amounts. Prior to planting soybeans, the fields were fertilized with 60 lb acre of P2O5, 80 lb per acre of K2O, and 20 lb per acre of sulfur. The soybean seeds were a 2.8-3.2 relative maturity planted at 120,000 to 140,000 seeds per acre. All field management were designed to effectively control weed and insect pests to optimize soybean growth and yield. The soybeans were planted and either 0, 0.5, 1.0, or 2.0 kg per acre of dibutyldithiophosphate was applied as a side dressing to the soybean plants. The dibutyldithiophosphate was dissolved in water and applied. The harvest weight was determined for each plot and corrected for slight differences in moisture content.

pea plants = assay: Growth of peas exposed to dibutyldithiophosphate (pots, 88 days); assay type: in vivo
Method: Peas were planted and grown in 8.25 inch TEKU pots. The pots were packed finger tight with potting mix #4 from Beautiful Land Products. The pea seeds were planted approximately 1.5 inches deep. 25 seeds were planted per dosing of dibutyldithiophosphate potassium salt. After the seeds were planted into the soil the desired amount of dibutyldithiophosphate for 32 doses was added to 160 mL of tap water. After mixing well for 10 minutes, 5 mL of the dibutyldithiophosphate solution was then added to the top of each seed after it was planted in the soil. Soil was then used to cover the seed. After adding the salt, the plants were moved outside in full sunlight until harvest. The pea plants were watered daily. Peter's Professional B 20-20-20 water soluble fertilizer was used at 1 tablespoon per 3 gallons of tap water and 350 mL of this solution was added to each plant. Plants were fertilized on day 44, 51, 66, 73, and 81.
The pea plants were harvested after 88 days. The plant was harvested by cutting the above soil portion of the plant at the root-stem boundary. The above ground portion of the plant was weighed in its entirety. Next the pods were removed, counted and weighed separately from the rest of the plant. Statistical analysis was performed using IBM SPSS Statistics 25. Dunnett's 2-sided t-test was performed to determine significance. Data represented are mean±standard error with ** indicating α<0.05 and * indicating α<0.1.

radish = settings: cited from earlier work
lettuce plants = settings: in vivo; cited from earlier work
peas = settings: in vivo; cited from earlier work
[1] = not given; remark: listed apart in the source
[2] = assay type: physicochemical
[3] = 90% H2O/D2O; for Percent Degradation: 31P NMR
people = settings: cited from earlier work
[4] = 20 mg per plant, potassium salt, 88 days
[5] = 85° C., 90% H2O/D2O, only phosphoric acid observed
[6] = hydrolysis, rate constants 25 to 85° C.
[7] = water buffered at pH 6.7, FIG. 4

CC(C)[C@@H]1CC[C@@H](C)C[C@H]1OP(=S)([S-])O[C@@H]1C[C@H](C)CC[C@H]1C(C)C.[K+] [Example 5]
release of H2S (pH 6.7): released H2S

CCc1ccc(OP(=S)([S-])Oc2ccc(CC)cc2)cc1.[K+] [Example 6]
half-life (physchem): 93.6 h

CCCCOP(=S)(S)OCCCC [dibutyldithiophosphate]
heights of corn plants (corn plants; in vivo): Little statistically significant difference
weight of corn plants (corn plants; in vivo): improvements in weights
weight of corn plants (significance) (corn plants; in vivo): statistically significant improvements
increase in harvest yield of soybeans (soybeans): 4.4%
number of pods, plant weight and total pod weight (pea plants; 10 mg per plant, potassium salt, 88 days): statistically significant increase
increase in number of pods (pea plants; [4]): 55%
increase in plant weight (pea plants; [4]): 46%
increase in total pod weight (pea plants; [4]): 45%
germination compared to the control plants (pea plants; 150 mg and 500 mg, potassium salt): reduction in germination
number of plants germinating (pea plants; 150 mg, 25 seeds planted per dosing): 6 plants
germination of seeds (pea plants; 500 mg): None of the seeds

C1COCCN1.COc1ccc(P(=S)(S)N2CCOCC2)cc1 (stereo not drawn) [GYY-4137]
growth of radish plants (radish; in vivo): increased the growth
harvest yield of radishes (radish; milligram loadings): doubled
growth of lettuce plants (lettuce plants): increased the growth
growth of pea plants (peas): increased the growth

S=P1(S)OCCS1 (stereo not drawn) [Example 14]
release of H2S (rank among the dithiophosphates) (pH 6.7): highest release of H2S

S=P1(S)OCCO1 [Example 2]
half-life (physchem): 204 h

S=P1(S)SCCS1 [Example 11]
half-life (physchem): 2.04 h

CC1COP(=S)([S-])O1.[K+] (stereo not drawn) [Example 3]
half-life (physchem): 98.4 h

CC(C)(C)OP(=S)(S)OC(C)(C)C [Example 8, di(tert-butanol)dithiophosphate Sodium Salt]
Rate of first-step of hydrolysis (85° C.) ([1]; 85° C., 90% H2O/D2O): 13.2 h⁻¹
Time to complete hydrolysis [1, 5]: 0.0493 days
rate of hydrolysis, fold slower at room temperature than at 85° C. ([1]; room temperature vs 85° C.): 2,600 ×
Rate of first-step of hydrolysis ([1]; room temperature, 90% H2O/D2O): 0.0051 h⁻¹
Time to complete hydrolysis ([1]; room temperature, 90% H2O/D2O): 30 days
ΔG^‡ (25° C.) ([2]; 25° C.): 25.26 kcal/mol
−TΔS^‡ (25° C.) ([2]; 25° C.): -2.58 kcal/mol
ΔΔG^‡ ([2]; 25° C. vs 85° C.): 0.526 kcal/mol
ΔG^‡ (85° C.) ([2]; 85° C.): 24.74 kcal/mol
sign of ΔS^‡ (in words) ([2]; hydrolysis): positive
ΔH^‡ [2, 6]: 27.84 kcal/mol
ΔS^‡ [2, 6]: 36.3 J/mol · K
hydrolysis after 30 days ([3]; room temperature, 30 days): completely hydrolyzed
Percent Degradation ([3]; 30 days, room temperature): 100%
percent degraded ([3]; day 12, room temperature): 62%
percent degraded ([3]; day 20, room temperature): 88%
release of H2S (rank among the dithiophosphates) [7]: highest release of H2S

CCCCOP(=S)(S)OCCCC [Example 1, Dibutyldithiophosphate Ammonium Salt]
Rate of first-step of hydrolysis (85° C.) ([1]; 85° C., 90% H2O/D2O): 0.00096 h⁻¹
Time to complete hydrolysis [1, 5]: 180 days
rate of hydrolysis, fold slower than the compound of Example 2 ([1]; 85° C., Table 2): 3.5 ×
rate of hydrolysis, fold slower than the dithiophosphate of Example 3 ([1]; 85° C., Table 2): 7.4 ×
rate of hydrolysis, fold slower than the dithiophosphate of Example 4 ([1]; 85° C., Table 2): 1.4 ×
increase in weight of corn plants (corn plants; 1 mg ammonium salt added to soil adjacent to seed, 4 weeks, vs plants grown without): 39%
Percent Degradation ([3]; 30 days, room temperature): <3%
release of H2S (rank among the dithiophosphates) [7]: lowest release of H2S

S=P(S)(Sc1ccccc1)Sc1ccccc1 [Example 13]
half-life (physchem): 31.2 h

CCCSP(=S)(S)SCCC [Example 10]
half-life (physchem): 3.12 h

S [Example H2S, hydrogen sulfide]
level in the air that can lead to negative health effects (headaches, breathing problems in asthma) (people; exposure in the air): 2 ppm
level immediately dangerous to life and health (people; exposure): 100 ppm

S=P1(S)SCCCS1 [Example 12]
half-life (physchem): 36 h
